“Also recorded” adds a separate entry of the source. Read-outs that look alike come from different tables or passages of the source.
Columns and labels:
Assay type in all cases: biochemical
[1] = tested on: LPS-induced GTPase activity in membranes isolated from RAW 264.7 cells; experiment: GTPase assay: effect of compounds on LPS-stimulated GTPase activity in macrophage membranes (release of 32Pi from γ-32P-GTP); conditions: for relative abilities of purines to stimulate LPS-enhanced GTPase: dose-response studies, rank order; for sensitivity of LPS-stimulated GTPase activity to inhibitor: high concentrations of inhibitor, 0.1 mM ATP and 0.2 mM AMPPNP
Excerpt: (§1) We sought to directly evaluate the influence of LPS on possible G-protein function by examining agonist-enhanced GTPase activity, which is a hallmark of G-protein action. Moreover, because macrophages are one of the key cell types in the release of toxic mediators following an LPS challenge, we first assessed the capacity of LPS to influence GTPase activity in membranes isolated from RAW 264.7 cells, which is a highly LPS-responsive macrophage cell line. In these studies, GTPase activity was measured using a standard assay. The activity was determined using 2 µM γ-^32P-GTP in the presence of 0.1 mM ATP and 0.2 mM of the non-hydrolyzable ATP analog, AMPPNP, in order to minimize nonspecific nucleotidase activity in the membrane preparations.
The reaction is initiated by the addition of the γ-^32P-GTP and the mixture incubated at 30-37°C for 15 to 30 minutes. The reaction is terminated by the addition of 500µl of 5% trichloroacetic acid and 500µl of 0.1gm/ml acid-activated charcoal in 5% trichloroacetic acid. The samples are centrifuged at 14,000xg for 10 minutes, and a 550µl aliquot of the supernatant is removed for scintillation counting. The supernatant will contain the released ^32Pi. The extent of GTPase inhibition is measured by the decrease in the amount of ^32Pi released from γ-^32P-GTP. Appropriate controls include mixtures with one of the following omitted: (i) test compound, (ii) endotoxin, and (iii) ATP, ADP or AMPPNP.
The membranes are resuspended in 20 mM HEPES (pH 7.4), 1 mM dithiothreitol, 1 mM EDTA and 10 µg leupeptin/ml. Aliquots are stored at -70°C until assayed.

[2] = tested on: GTPase activity in membranes isolated from a macrophage (RAW 264.7) cell line; experiment: GTPase assay, basal activity and single agonists
Excerpt: as §1, with “preparations. In the preferred practice of the present invention, the ability of a candidate compound to inhibit LPS-induced GTPase is assessed by measuring the release of ^32Pi from γ-^32P-GTP.” for “preparations.”
(§2) We first determined the optimal LPS concentration for GTPase stimulation. In all experiments, the LPS dose response curve was quite steep, and with the highest activity occurring around 200-300 µg LPS/ml.
(§3) Under these conditions, GTPase activation was evident at 100 µg LPS/ml (roughly 6 µM assuming an average MW ∼ 17,000 kDa), and the maximal effect was seen by 300 µg/ml LPS. (2) To show adenosine mucleotide synergism with LPS-stimulated GTPase activity, either 10µM ATP or 30µM ADP replace the 0.1 mM ATP and 0.2 mM AMPPNP of the standard assay described by Cassel et al. and Neer et al.
Because the above inhibitor studies indicated a maximum LPS-stimulated GTPase activity in the presence of ATP and ATP analogs, we investigated this interaction by measuring the ATP-dependence of the GTPase activity in macrophage membranes in the presence and absence of an optimal dose of LPS. […] This stimulation by ATP may be due to the action of purinergic receptors, i.e., the adenosine and ATP receptors which are well-characterized to be coupled to various G-proteins.
(§4) To assess whether the LPS/ATP-enhanced GTPase is a "low Km" form, which would be expected for a variety of large and small MW G-proteins, as well as for various GAP and ARF-like proteins, as opposed to a "high Km" form, such as a phosphatase, we assayed the GTPase activity using 0.2 and 50 µM GTP essentially as described previously. […] The LPS and ATP stimulated a low Km GTPase activity by ∼30% and 70%, respectively, when added individually. This stimulation of low Km activity was slightly greater than that estimated using the standard assay conditions. […] The LPS stimulation of GTPase activity is enhanced by adenine nucleotides.

[3] = tested on: GTPase activity in membranes isolated from a macrophage (RAW 264.7) cell line; experiment: GTPase assay: basal or agonist-stimulated GTPase activity in macrophage membranes
Excerpt: as §1, with “preparations. In the preferred practice of the present invention, the ability of a candidate compound to inhibit LPS-induced GTPase is assessed by measuring the release of ^32Pi from γ-^32P-GTP.” for “preparations.”
as §2, §3
(§5) In the preferred assay, a candidate compound (.001 - 1000 µM) is dissolved or suspended in 100µl of a reaction buffer containing 20mM HEPES (pH 7.4), 0.01mM ATP or ADP, membranes isolated from RAW 264.7 cells, 2µM γ-^32P-GTP (3-9 X 10cpm/pmol), 5mM MgCl2, 18µM LPS (based on an estimated MW of 17,000 kDa for E. coli 0111:B4 endotoxin), and 250 mM ammonium sulfate. The reaction is initiated by the addition of the γ-^32P-GTP and the mixture incubated at 30-37°C for 15 to 30 minutes. The reaction is terminated by the addition of 500µl of 5% trichloroacetic acid and 500µl of 0.1gm/ml acid-activated charcoal in 5% trichloroacetic acid. The samples are centrifuged at 14,000xg for 10 minutes, and a 550µl aliquot of the supernatant is removed for scintillation counting. The supernatant will contain the released ^32Pi. The extent of GTPase inhibition is measured by the decrease in the amount of ^32Pi released from γ-^32P-GTP. Appropriate controls include mixtures with one of the following omitted: (i) test compound, (ii) endotoxin, and (iii) ATP, ADP or AMPPNP.
(§6) The macrophage-like cell line RAW 264.7 is cultured as described using RPMI 1640 medium supplemented with 10% fetal calf serum (FCS) containing < 0.1 ng/ml LPS. The membranes are resuspended in 20 mM HEPES (pH 7.4), 1 mM dithiothreitol, 1 mM EDTA and 10 µg leupeptin/ml. Aliquots are stored at -70°C until assayed.
as §4

[4] = tested on: LPS-induced GTPase activity in membranes isolated from RAW 264.7 cells; experiment: GTPase assay (release of 32Pi from γ-32P-GTP), LPS-stimulated activity; conditions: for LPS-stimulated GTPase activity when adenine nucleotide included in the incubation: compared with no added adenine nucleotides
Excerpt: as §1, with “preparations. In the preferred practice of the present invention, the ability of a candidate compound to inhibit LPS-induced GTPase is assessed by measuring the release of ^32Pi from γ-^32P-GTP.” for “preparations.”
as §3, §5, §6

Molecule: Nc1ncnc2c1ncn2[C@@H]1O[C@H](COP(=O)(O)O)[C@@H](O)[C@H]1O [AMP]
- stimulation of LPS-enhanced GTPase activity ([1]; at 100 µM): ineffective; also recorded: did not synergistically increase

Molecule: phosphatidic acid [listing 1 of 2 here]
- effect on basal GTPase activity [2]: did not stimulate

Molecule: phosphatidic acid [listing 2 of 2 here]
- inhibition of LPS-stimulated GTPase activity [1]: nor inhibit LPS-stimulated GTPase activity
- effect on basal GTPase activity ([3]; no LPS): did not stimulate basal GTPase activity

Molecule: phosphatidylserine [listing 1 of 2 here]
- effect on basal GTPase activity [2]: did not stimulate

Molecule: NC(=O)c1ccc[n+]([C@@H]2O[C@H](COP(=O)([O-])OP(=O)(O)OC[C@H]3O[C@@H](n4cnc5c(N)ncnc54)[C@H](O)[C@@H]3O)[C@@H](O)[C@H]2O)c1 [NAD]
- stimulation of LPS-enhanced GTPase activity ([1]; at 100 µM): did not synergistically increase

Molecule: Triton X-100
- inhibition of LPS-stimulated GTPase activity [1]: did not substantially interfere
- effect on basal GTPase activity ([3]; no LPS): did reduce basal GTPase activity

Molecule: phosphatidylcholine [listing 1 of 2 here]
- effect on basal GTPase activity [2]: did not stimulate

Molecule: Nc1ncnc2c1ncn2[C@@H]1O[C@H](COP(=O)(O)OP(=O)(O)OP(O)(O)=S)[C@@H](O)[C@H]1O [ATPγS]
- relative abilities of purines to stimulate LPS-enhanced GTPase [1]: ATP> ATPγS> ADP> AMPPNP>> β,γ methylene ATP> 2-MeSATP

Molecule: CO/C1=C\C(C)=C\[C@@H](C)[C@@H](O)[C@@H](C)C/C(C)=C/C=C/[C@H](OC)[C@@H]([C@@H](C)[C@@H](O)[C@H](C)[C@@]2(O)C[C@@H](O)[C@H](C)[C@@H](C(C)C)O2)OC1=O [bafilomycin]
- inhibition of LPS-stimulated GTPase activity [1]: not antagonized
- inhibition of LPS-stimulated GTPase activity ([1]; in the presence of ADP): did not block

Molecule: [Na+].[Na+].[Na+].[O]=[V]([O-])([O-])[O-] [sodium orthovanadate]
- inhibition of LPS-stimulated GTPase activity [1]: did block LPS activation

Molecule: Nc1ncnc2c1ncn2[C@@H]1O[C@H](COP(=O)(O)OP(=O)(O)NP(=O)(O)O)[C@@H](O)[C@H]1O [AMPPNP]
- stimulation (potentiation) of LPS-stimulated GTPase activity [1]: pronounced increase in LPS-stimulated GTPase activity
- relative abilities of purines to stimulate LPS-enhanced GTPase [1]: ATP> ATPγS> ADP> AMPPNP>> β,γ methylene ATP> 2-MeSATP
- LPS-stimulated GTPase activity when adenine nucleotide included in the incubation [4]: pronounced increase

Molecule: Nc1ncnc2c1ncn2[C@@H]1O[C@H](COP(=O)(O)OP(=O)(O)OP(=O)(O)O)[C@@H](O)[C@H]1O [ATP]
- stimulation (potentiation) of LPS-stimulated GTPase activity [1]: potentiated; also recorded: pronounced increase in LPS-stimulated GTPase activity
- ATP concentration of striking synergistic stimulation of GTPase activity ([1]; ATP and LPS added together, biphasic): 1 to 10 µM
- increase in activity of the GTPase ([1]; ATP in the presence of LPS): three-fold
- stimulation of LPS-enhanced GTPase activity ([1]; at 1 µM): active
- relative abilities of purines to stimulate LPS-enhanced GTPase [1]: ATP> ATPγS> ADP> AMPPNP>> β,γ methylene ATP> 2-MeSATP
- ATP concentration of maximum stimulation of GTPase activity ([3]; ATP alone, no LPS, biphasic stimulation): 1 to 10 µM
- combined effects of LPS and ATP: stimulation calculated for the low Km activity ([3]; LPS plus ATP): 228 % of basal activity
- combined effects of LPS and ATP: stimulation measured using standard assay conditions ([3]; LPS plus ATP, 2 µM GTP, 0.1 mM ATP, 0.2 mM AMPPNP): 208 % of basal activity
- stimulation of low Km GTPase activity ([3]; added individually, ATP 10 µM): 70%
- LPS-stimulated GTPase activity when adenine nucleotide included in the incubation [4]: pronounced increase

Molecule: Cn1c(=O)c2[nH]cnc2n(C)c1=O [theophylline]
- stimulation of LPS-enhanced GTPase activity ([1]; at 100 µM): did not synergistically increase

Molecule: CC(C)Cn1c(=O)n(C)c(=O)c2[nH]cnc21 [IBMX]
- inhibition of LPS-stimulated GTPase activity [1]: did not alter the LPS activation of the GTPase
- stimulation of LPS-enhanced GTPase activity ([1]; at 100 µM): did not synergistically increase
- effect on the LPS activation of the GTPase ([4]; P1 purinoreceptor antagonist): did not alter

Molecule: CCN1C(=O)C=CC1=O [N-ethyl-maleimide]
- inhibition of LPS-stimulated GTPase activity [1]: not antagonized
- inhibition of LPS-stimulated GTPase activity ([1]; in the presence of ADP): did not block

Molecule: O=c1ccn([C@@H]2O[C@H](COP(=O)(O)OP(=O)(O)OP(=O)(O)O)[C@@H](O)[C@H]2O)c(=O)[nH]1 [UTP]
- stimulation of LPS-enhanced GTPase activity ([1]; at 100 µM): did not synergistically increase

Molecule: Nc1ncnc2c1ncn2[C@@H]1O[C@H](COP(=O)(O)OP(=O)(O)O)[C@@H](O)[C@H]1O [ADP]
- stimulation (potentiation) of LPS-stimulated GTPase activity [1]: potentiated; also recorded: pronounced increase in LPS-stimulated GTPase activity
- relative abilities of purines to stimulate LPS-enhanced GTPase [1]: ATP> ATPγS> ADP> AMPPNP>> β,γ methylene ATP> 2-MeSATP
- LPS-stimulated GTPase activity when adenine nucleotide included in the incubation [4]: pronounced increase

Molecule: Nc1ncnc2c1ncn2[C@@H]1O[C@H](COP(=O)(O)OP(=O)(O)CP(=O)(O)O)[C@@H](O)[C@H]1O [β,γ methylene ATP]
- relative abilities of purines to stimulate LPS-enhanced GTPase [1]: ATP> ATPγS> ADP> AMPPNP>> β,γ methylene ATP> 2-MeSATP

Molecule: Nc1ncnc2c1ncn2[C@@H]1O[C@H](CO)[C@@H](O)[C@H]1O [adenosine]
- stimulation of LPS-enhanced GTPase activity ([1]; at 100 µM): ineffective; also recorded: did not synergistically increase

Molecule: phosphatidylserine [listing 2 of 2 here]
- inhibition of LPS-stimulated GTPase activity [1]: nor inhibit LPS-stimulated GTPase activity
- effect on basal GTPase activity ([3]; no LPS): did not stimulate basal GTPase activity

Molecule: phosphatidylcholine [listing 2 of 2 here]
- inhibition of LPS-stimulated GTPase activity [1]: nor inhibit LPS-stimulated GTPase activity
- effect on basal GTPase activity ([3]; no LPS): did not stimulate basal GTPase activity

Molecule: O=[N+]([O-])c1ccc(OP(=O)(O)O)cc1 [p-nitrophenyl-phosphate]
- inhibition of LPS-stimulated GTPase activity [1]: not antagonized
- sensitivity of LPS-stimulated GTPase activity to inhibitor [1]: insensitivity

Molecule: C[C@@H]1O[C@@H](O[C@H]2C[C@@H](O)[C@]3(CO)[C@H]4[C@H](O)C[C@]5(C)[C@@H](C6=CC(=O)OC6)CC[C@]5(O)[C@@H]4CC[C@]3(O)C2)[C@H](O)[C@H](O)[C@H]1O [ouabain]
- inhibition of LPS-stimulated GTPase activity [1]: not antagonized
- sensitivity of LPS-stimulated GTPase activity to inhibitor [1]: insensitivity
- inhibition of LPS-stimulated GTPase activity ([1]; in the presence of ADP): did not block

— EP0559845B1, “Use of compounds in preventing endotoxin shock” (priority 1991, dated 1992)
